Measured values reported in PubChem BioAssay AID2060610 (Molecular Pharmacology Branch, DTP, NCI, 2025).
Where “and” joins values, the source holds several entries; their conditions need not be identical. Equal entries are not always repeated.

Tested on: 616215-338-R-J1-PDC complex spheroids, viability % test/control
Assay: Anticancer human tumor 616215-338-R-J1-PDC patient-derived colon adenocarcinoma cell line growth inhibition [CLK]
Conditions: for viability, T/C: stronger effect = lower value
Summary of the method: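 Multi-cell-type spheroids combined patient-derived tumor cells with HUVEC endothelial cells and human mesenchymal stem cells. Paired agents were dosed in half-log steps down from about clinical Cmax, or from 10 microM where Cmax was unknown.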

[1] = curve of first compound, second compound 0.0316 µM
[2] = curve of first compound, second compound 0.1 µM
[3] = curve of first compound, second compound 0.316 µM
[4] = curve of first compound, second compound 1 µM
[5] = curve of first compound, second compound 3.16 µM
[6] = curve of first compound, second compound 10 µM
[7] = second compound 0.0316 µM, first compound 0.0316 µM
[8] = second compound 0.0316 µM, first compound 0.1 µM
[9] = second compound 0.0316 µM, first compound 0.316 µM
[10] = second compound 0.0316 µM, first compound 1 µM
[11] = second compound 0.1 µM, first compound 0.0316 µM
[12] = second compound 0.1 µM, first compound 0.1 µM
[13] = second compound 0.1 µM, first compound 0.316 µM
[14] = second compound 0.1 µM, first compound 1 µM
[15] = second compound 0.316 µM, first compound 0.0316 µM
[16] = second compound 0.316 µM, first compound 0.1 µM
[17] = second compound 0.316 µM, first compound 0.316 µM
[18] = second compound 0.316 µM, first compound 1 µM
[19] = second compound 1 µM, first compound 0.0316 µM
[20] = second compound 1 µM, first compound 0.1 µM
[21] = second compound 1 µM, first compound 0.316 µM
[22] = second compound 1 µM, first compound 1 µM
[23] = second compound 3.16 µM, first compound 0.0316 µM
[24] = second compound 3.16 µM, first compound 0.1 µM
[25] = second compound 3.16 µM, first compound 0.316 µM
[26] = second compound 3.16 µM, first compound 1 µM
[27] = second compound 10 µM, first compound 0.0316 µM
[28] = second compound 10 µM, first compound 0.1 µM
[29] = second compound 10 µM, first compound 0.316 µM
[30] = second compound 10 µM, first compound 1 µM
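Also: spheroids exposed to agents for 7 days.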
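For viability, T/C in this document: 100% = DMSO vehicle wells.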

`Nc1ccn(C2OC(CO)C(O)C2(F)F)c(=O)n1` (stereo unspecified) was tested, and the viability, T/C (compound 0.0316 µM) was 13.9% and 20.9%, the viability, T/C (compound 0.1 µM) was 11.6% and 15.4% and the viability, T/C (compound 0.316 µM) was 9.93% and 15.4%. For the same compound, the viability, T/C (compound 1 µM) was 13.5% and 17%, the viability, T/C (compound 3.16 µM) was 9.75% and 16.1% and the viability, T/C (compound 10 µM) was 11.3% and 14.7%. For the same compound, the IC50 (curve of compound) was < 0.0316 µM.
`CCN1CCN(Cc2ccc(Nc3ncc(F)c(-c4cc(F)c5nc(C)n(C(C)C)c5c4)n3)nc2)CC1` + CNC(=O)c1ccc(Nc2nc(OC3CCCC3)c3c(-c4ccc5nc(C)oc5c4)c[nH]c3n2)c(OC)c1 was tested, and the IC50 [1] was 0.928 µM, the IC50 [2] was 0.285 µM and the IC50 [3] was < 0.00316 µM. The IC50 [4] was 0.136 µM, the IC50 [5] was 0.357 µM and the IC50 [6] was < 0.00316 µM. It also gave a viability, T/C (second compound 0.0316 µM, first compound 0.00316 µM) of 83%, a viability, T/C (second compound 0.0316 µM, first compound 0.01 µM) of 93.2% and a viability, T/C [7] of 95.5%. For the same compound, the viability, T/C [8] was 137%, the viability, T/C [9] was 130% and the viability, T/C [10] was 46%. The viability, T/C (second compound 0.1 µM, first compound 0.00316 µM) was 51.6%, the viability, T/C (second compound 0.1 µM, first compound 0.01 µM) was 55% and the viability, T/C [11] was 56.3%. The viability, T/C [12] was 58%, the viability, T/C [13] was 48.1% and the viability, T/C [14] was 26.7%. For the same compound, the viability, T/C (second compound 0.316 µM, first compound 0.00316 µM) was 45.5%, the viability, T/C (second compound 0.316 µM, first compound 0.01 µM) was 49.2% and the viability, T/C [15] was 53.5%. The viability, T/C [16] was 50.3%, the viability, T/C [17] was 47.9% and the viability, T/C [18] was 28.2%. For the same compound, the viability, T/C (second compound 1 µM, first compound 0.00316 µM) was 51.8%, the viability, T/C (second compound 1 µM, first compound 0.01 µM) was 49.1% and the viability, T/C [19] was 59.6%. It also gave a viability, T/C [20] of 55%, a viability, T/C [21] of 39.5% and a viability, T/C [22] of 28.6%. For the same compound, the viability, T/C (second compound 3.16 µM, first compound 0.00316 µM) was 47.4%, the viability, T/C (second compound 3.16 µM, first compound 0.01 µM) was 50.3% and the viability, T/C [23] was 53%. For the same compound, the viability, T/C [24] was 54.1%, the viability, T/C [25] was 61.2% and the viability, T/C [26] was 22.7%. For the same compound, the viability, T/C (second compound 10 µM, first compound 0.00316 µM) was 41.6%, the viability, T/C (second compound 10 µM, first compound 0.01 µM) was 46.8% and the viability, T/C [27] was 58.5%. For the same compound, the viability, T/C [28] was 52.2%, the viability, T/C [29] was 46% and the viability, T/C [30] was 29.2%.
`COC1C=CCC(C)C(C)S(=O)(=O)NC(=O)c2ccc3c(c2)N(CC2CCC21)CC1(CCCc2cc(Cl)ccc21)CO3` (stereo unspecified) + CN1CCN(c2cc(C(=O)Nc3cc4cc(-c5cnn(C)c5)ccc4cn3)ccn2)CC1 was tested, and the IC50 [1] was 2.36 µM, the IC50 [2] was 2.87 µM and the IC50 [3] was < 0.0316 µM. For the same compound, the IC50 [4] was < 0.0316 µM, the IC50 [5] was < 0.0316 µM and the IC50 [6] was < 0.0316 µM. It also gave a viability, T/C [7] of 45.7%, a viability, T/C [8] of 32.5% and a viability, T/C [9] of 111%. It also gave a viability, T/C [10] of 106%, a viability, T/C (second compound 0.0316 µM, first compound 3.16 µM) of 41.9% and a viability, T/C (second compound 0.0316 µM, first compound 10 µM) of 0.01%. The viability, T/C [11] was 41.4%, the viability, T/C [12] was 44.4% and the viability, T/C [13] was 122%. For the same compound, the viability, T/C [14] was 116%, the viability, T/C (second compound 0.1 µM, first compound 3.16 µM) was 47.2% and the viability, T/C (second compound 0.1 µM, first compound 10 µM) was 0.01%. For the same compound, the viability, T/C [15] was 9.08%, the viability, T/C [16] was 9.53% and the viability, T/C [17] was 21.3%. For the same compound, the viability, T/C [18] was 28.6%, the viability, T/C (second compound 0.316 µM, first compound 3.16 µM) was 20% and the viability, T/C (second compound 0.316 µM, first compound 10 µM) was 0.01%. It also gave a viability, T/C [19] of 0.68%, a viability, T/C [20] of 0.08% and a viability, T/C [21] of 0.17%. For the same compound, the viability, T/C [22] was 0.14%, the viability, T/C (second compound 1 µM, first compound 3.16 µM) was 0.94% and the viability, T/C (second compound 1 µM, first compound 10 µM) was 0.01%. It also gave a viability, T/C [23] of 0.04%, a viability, T/C [24] of 0.07% and a viability, T/C [25] of 0.18%. It also gave a viability, T/C [26] of 0.16%, a viability, T/C (second compound 3.16 µM, first compound 3.16 µM) of 0.18% and a viability, T/C (second compound 3.16 µM, first compound 10 µM) of 0.01%. The viability, T/C [27] was 0.08%, the viability, T/C [28] was 0.09% and the viability, T/C [29] was 0.24%. It also gave a viability, T/C [30] of 0.27%, a viability, T/C (second compound 10 µM, first compound 3.16 µM) of 0.33% and a viability, T/C (second compound 10 µM, first compound 10 µM) of 0.01%.
